Like-named read-outs stand apart in the source and are kept apart here.
Legend:
Capan-1 (K-Ras G12V) = experiment: CellTiter-Glo cell viability assay, 5-day treatment; type: cell-based; conditions: Homo sapiens, CAPAN-1, 120 h, 5-day treatment; read-out: Capan-1 Cell Viability assay data (K-Ras G12V, IC50)
Method in brief: (§1)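 Seeded cells received test compound by direct dispensing. On day 5 the plates sat at room temperature approximately 30 minutes, then luminescence was measured. Data were normalized to DMSO and curve-fitted with four parameters.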

NCI-H358 (K-Ras G12C) = experiment: as above; type: cell-based; conditions: Homo sapiens, NCI-H358, 120 h, 5-day treatment; read-out: H358 Cell Viability assay data (K-Ras G12C, IC50)
Method in brief: as §1

KRAS G12C = KRAS G12C (Homo sapiens, UniProt P01116+P62937, G12C); experiment: Disruption of BRAF RBD interaction with Ras (FRET / MOA assay, with Cyclophilin A); type: biochemical
Method in brief: (§2)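 Here, compound titrations (ten points, factor 3, from 30 μM final) act on nucleotide-bound K-Ras and Cyclophilin A, and ternary complex formation disrupts the RAF RBD interaction.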

NRAS G12C = NRAS G12C (Homo sapiens, UniProt P01111+P62937, G12C); experiment: as above; type: biochemical
KRAS WT = KRAS WT (Homo sapiens, UniProt P01116+P62937); experiment: as above; type: biochemical
Method in brief: as §2

KRAS G12V = KRAS G12V (Homo sapiens, UniProt P01116+P62937, G12V); experiment: as above; type: biochemical
Method in brief: as §2

KRAS G12S = KRAS G12S (Homo sapiens, UniProt P01116+P62937, G12S); experiment: as above; type: biochemical
Method in brief: as §2

KRAS G13C = KRAS G13C (Homo sapiens, UniProt P01116+P62937, G13C); experiment: as above; type: biochemical
Method in brief: as §2

KRAS G12D = KRAS G12D (Homo sapiens, UniProt P01116+P62937, G12D); experiment: as above; type: biochemical
Method in brief: as §2

KRAS G13D = KRAS G13D (Homo sapiens, UniProt P01116+P62937, G13D); experiment: as above; type: biochemical
Method in brief: as §2

NRAS Q61K = NRAS Q61K (Homo sapiens, UniProt P01111+P62937, Q61K); experiment: as above; type: biochemical; conditions: NRAS Q61K; read-out: NRAS Q61K FRET data IC50
Method in brief: (§3)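 TR-FRET in 25 mM HEPES pH 7.3, 100 mM NaCl, 5 mM MgCl2, 0.1% BSA: 25 μM Cyclophilin A, 12.5 nM His6-Ras-GMPPNP, 50 nM GST-BRAF RBD with compound (10-point 3-fold series from 30 μM), 3 h at 25° C. Anti-His Eu/anti-GST APC added, 1.5 h more; IC50 from decreased FRET ratio versus DMSO.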

NRAS WT = NRAS WT (Homo sapiens, UniProt P01111+P62937); experiment: as above; type: biochemical; conditions: NRAS WT; read-out: NRAS WT FRET data IC50
Method in brief: as §3

NRAS Q61R = NRAS Q61R (Homo sapiens, UniProt P01111+P62937, Q61R); experiment: as above; type: biochemical; conditions: NRAS Q61R; read-out: NRAS Q61R FRET data IC50
Method in brief: as §3

KRAS Q61H = KRAS Q61H (Homo sapiens, UniProt P01116+P62937, Q61H); experiment: as above; type: biochemical; conditions: KRAS Q61H; read-out: KRAS Q61H FRET data IC50
Method in brief: as §3

[1] = read-out: KRAS G12C FRET data, IC50
[2] = NRAS G12C, read-out: NRAS G12C FRET data IC50
[3] = KRAS WT, read-out: KRAS WT FRET data IC50
[4] = KRAS G12V, read-out: KRAS G12V FRET data IC50
[5] = read-out: KRAS G12S FRET data, IC50
[6] = read-out: KRAS G13C FRET data, IC50
[7] = read-out: KRAS G12D FRET data, IC50
[8] = KRAS G13D, read-out: KRAS G13D FRET data IC50

Sequence of KRAS G12D (P01116 1-169 isoform P01116-2 G12D limits assumed): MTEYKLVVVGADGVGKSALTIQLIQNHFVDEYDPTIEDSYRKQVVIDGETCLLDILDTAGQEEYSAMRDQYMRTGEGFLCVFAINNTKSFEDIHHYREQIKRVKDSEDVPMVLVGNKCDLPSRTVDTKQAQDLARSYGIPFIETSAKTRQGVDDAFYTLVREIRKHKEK
Sequence of KRAS G12D (P62937 whole entry): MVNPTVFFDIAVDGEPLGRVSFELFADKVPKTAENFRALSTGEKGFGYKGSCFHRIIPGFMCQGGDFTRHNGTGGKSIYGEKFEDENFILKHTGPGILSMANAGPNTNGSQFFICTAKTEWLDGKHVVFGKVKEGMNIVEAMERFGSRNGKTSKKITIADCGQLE
Sequence of NRAS G12C (P01111 whole entry G12C): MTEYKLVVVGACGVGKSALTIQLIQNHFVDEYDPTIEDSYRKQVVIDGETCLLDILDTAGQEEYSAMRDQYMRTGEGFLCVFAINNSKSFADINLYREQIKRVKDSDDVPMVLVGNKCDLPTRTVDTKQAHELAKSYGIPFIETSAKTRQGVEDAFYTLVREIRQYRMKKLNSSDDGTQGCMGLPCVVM
Sequence of NRAS G12C (P62937 whole entry): as the sequence (P62937 whole entry) above
Sequence of KRAS G13C (P01116 1-169 isoform P01116-2 G13C): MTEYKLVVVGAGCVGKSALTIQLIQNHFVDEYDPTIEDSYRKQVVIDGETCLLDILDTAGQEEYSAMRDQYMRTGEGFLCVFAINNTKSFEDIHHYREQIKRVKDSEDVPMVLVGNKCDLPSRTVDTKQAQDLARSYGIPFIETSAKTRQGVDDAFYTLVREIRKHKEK
Sequence of KRAS G13C (P62937 whole entry): as the sequence (P62937 whole entry) above
Sequence of KRAS WT (P01116 1-169 isoform P01116-2 limits assumed): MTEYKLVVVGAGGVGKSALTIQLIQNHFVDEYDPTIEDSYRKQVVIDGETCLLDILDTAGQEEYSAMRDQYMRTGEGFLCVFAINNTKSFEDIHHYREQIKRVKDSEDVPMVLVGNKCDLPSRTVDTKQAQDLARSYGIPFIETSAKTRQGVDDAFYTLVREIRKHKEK
Sequence of KRAS WT (P62937 whole entry): as the sequence (P62937 whole entry) above
Sequence of NRAS Q61K (P01111 whole entry Q61K): as the sequence (P01111 whole entry G12C) above, with C12G, Q61K counted along it
Sequence of NRAS Q61K (P62937 whole entry): as the sequence (P62937 whole entry) above
Sequence of KRAS G12S (P01116 1-169 isoform P01116-2 G12S limits assumed): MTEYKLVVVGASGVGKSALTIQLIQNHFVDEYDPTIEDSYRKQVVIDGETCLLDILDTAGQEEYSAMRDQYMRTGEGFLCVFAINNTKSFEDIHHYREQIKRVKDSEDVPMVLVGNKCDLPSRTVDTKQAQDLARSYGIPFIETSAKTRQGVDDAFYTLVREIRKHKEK
Sequence of KRAS G12S (P62937 whole entry): as the sequence (P62937 whole entry) above
Sequence of KRAS G12V (P01116 1-169 isoform P01116-2 G12V limits assumed): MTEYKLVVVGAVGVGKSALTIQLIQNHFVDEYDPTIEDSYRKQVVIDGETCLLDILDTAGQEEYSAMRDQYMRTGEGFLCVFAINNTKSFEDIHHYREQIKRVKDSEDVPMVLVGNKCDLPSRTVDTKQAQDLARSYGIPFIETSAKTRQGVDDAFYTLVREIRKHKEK
Sequence of KRAS G12V (P62937 whole entry): as the sequence (P62937 whole entry) above
Sequence of KRAS G12C (P01116 1-169 isoform P01116-2 G12C): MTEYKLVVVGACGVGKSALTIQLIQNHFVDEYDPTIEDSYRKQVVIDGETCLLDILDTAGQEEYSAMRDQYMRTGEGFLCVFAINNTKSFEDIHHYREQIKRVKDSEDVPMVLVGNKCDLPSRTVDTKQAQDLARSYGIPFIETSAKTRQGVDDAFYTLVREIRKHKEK
Sequence of KRAS G12C (P62937 whole entry): as the sequence (P62937 whole entry) above
Sequence of KRAS G13D (P01116 1-169 isoform P01116-2 G13D limits assumed): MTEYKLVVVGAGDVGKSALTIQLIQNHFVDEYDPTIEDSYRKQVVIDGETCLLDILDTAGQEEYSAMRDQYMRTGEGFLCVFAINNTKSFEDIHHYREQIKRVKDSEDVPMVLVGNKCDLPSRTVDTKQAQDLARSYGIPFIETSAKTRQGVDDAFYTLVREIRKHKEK
Sequence of KRAS G13D (P62937 whole entry): as the sequence (P62937 whole entry) above
Sequence of NRAS WT (P01111 whole entry): as the sequence (P01111 whole entry G12C) above, with C12G counted along it
Sequence of NRAS WT (P62937 whole entry): as the sequence (P62937 whole entry) above
Sequence of KRAS Q61H (P01116 1-169 isoform P01116-2 Q61H limits assumed): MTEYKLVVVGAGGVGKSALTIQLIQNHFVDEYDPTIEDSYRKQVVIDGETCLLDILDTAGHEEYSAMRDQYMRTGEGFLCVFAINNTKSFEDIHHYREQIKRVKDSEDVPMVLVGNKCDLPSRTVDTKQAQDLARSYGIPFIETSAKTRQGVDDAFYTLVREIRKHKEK
Sequence of KRAS Q61H (P62937 whole entry): as the sequence (P62937 whole entry) above
Sequence of NRAS Q61R (P01111 whole entry Q61R): as the sequence (P01111 whole entry G12C) above, with C12G, Q61R counted along it
Sequence of NRAS Q61R (P62937 whole entry): as the sequence (P62937 whole entry) above

SMILES | IC50 (Capan-1 (K-Ras G12V)) | IC50 (NCI-H358 (K-Ras G12C)) | IC50 (KRAS G12C; [1]) | IC50 (NRAS G12C; [2]) | IC50 (KRAS WT; [3]) | IC50 (KRAS G12V; [4]) | IC50 (KRAS G12S; [5]) | IC50 (KRAS G13C; [6]) | IC50 (KRAS G12D; [7]) | IC50 (KRAS G13D; [8]) | IC50 (NRAS Q61K) | IC50 (NRAS WT) | IC50 (NRAS Q61R) | IC50 (KRAS Q61H) | other results
CCn1c(-c2cccnc2[C@H](C)OC)c2c3cc(ccc31)-c1nc(cs1)C[C@H](NC(=O)[C@H](C(C)C)N(C)C(C)=O)C(=O)N1CCC[C@H](N1)C(=O)OCC(C)(C)C2 [Example A152] | 0.1 to 1 µM | 0.1 to 1 µM | 1 to 10 µM | 1 to 10 µM | 1 to 10 µM | 1 to 10 µM | 1 to 10 µM | 1 to 10 µM | 1 to 10 µM | 1 to 10 µM | 0.1 to 1 µM | 1 to 10 µM | 1 to 10 µM | 0.1 to 1 µM | 
CCn1c(-c2cc(N3CCN(C)CC3)cnc2[C@H](C)OC)c2c3cc(ccc31)-c1cccc(c1)C[C@H](NC(=O)[C@H](C(C)C)N(C)C(=O)[C@@H]1OCC[C@@H]1c1ccccc1)C(=O)N1CCC[C@H](N1)C(=O)OCC(C)(C)C2 (atropisomer, axis not shown) [Example A562] | < 0.01 µM | < 0.01 µM | 0.01 to 0.1 µM | 0.01 to 0.1 µM | 0.01 to 0.1 µM | 0.01 to 0.1 µM | 0.1 to 1 µM | 0.01 to 0.1 µM | 0.1 to 1 µM | 0.1 to 1 µM | 0.1 to 1 µM | 0.01 to 0.1 µM | 0.01 to 0.1 µM | 0.01 to 0.1 µM | 
CCn1c(-c2cccnc2[C@H](C)OC)c2c3cc(ccc31)-c1csc(n1)C[C@H](NC(=O)[C@H](C(C)C)N(C)C(=O)N1CCN(C(=O)C3(N(C)C)CC3)CC1)C(=O)N1CCC[C@H](N1)C(=O)OCC(C)(C)C2 (atropisomer, axis not shown) [Example A443] | 0.01 to 0.1 µM | < 0.01 µM | 0.01 to 0.1 µM | 0.01 to 0.1 µM | 0.01 to 0.1 µM | 0.1 to 1 µM | 0.1 to 1 µM | 0.1 to 1 µM | 0.1 to 1 µM | 0.1 to 1 µM | 0.01 to 0.1 µM | 0.01 to 0.1 µM | 0.1 to 1 µM | 0.01 to 0.1 µM | 
CCn1c(-c2cccnc2[C@H](C)OC)c2c3cc(ccc31)-c1csc(n1)C[C@H](NC(=O)[C@H](C(C)C)N(C)C(=O)N1CCCC1)C(=O)N1CCC[C@H](N1)C(=O)OCC(C)(C)C2 (atropisomer, axis not shown) [Example A400] | 0.01 to 0.1 µM | 0.01 to 0.1 µM | 0.01 to 0.1 µM | 0.01 to 0.1 µM | 0.01 to 0.1 µM | 0.1 to 1 µM | 0.01 to 0.1 µM | 0.1 to 1 µM | 0.1 to 1 µM | 0.1 to 1 µM | 0.01 to 0.1 µM | 0.01 to 0.1 µM | 0.01 to 0.1 µM | 0.01 to 0.1 µM | 
CCn1c(-c2cccnc2[C@H](C)OC)c2c3cc(ccc31)-c1csc(n1)C[C@H](NC(=O)[C@H](C(C)C)N(C)C(=O)N1CC(CN(C)C)(OC)C1)C(=O)N1CCC[C@H](N1)C(=O)OCC(C)(C)C2 (atropisomer, axis not shown) [Example A575] | 0.1 to 1 µM | 0.1 to 1 µM | 1 to 10 µM | 1 to 10 µM | 1 to 10 µM | 1 to 10 µM | 1 to 10 µM | 1 to 10 µM | 1 to 10 µM | 1 to 10 µM | 1 to 10 µM | 1 to 10 µM | 1 to 10 µM | 1 to 10 µM | 
CCn1c(-c2cccnc2[C@H](C)OC)c2c3cc(ccc31)-c1csc(n1)C[C@H](NC(=O)N1CCC[C@@H]1COC)C(=O)N1CCC[C@H](N1)C(=O)OCC(C)(C)C2 (atropisomer, axis not shown) [Example A266] | 0.1 to 1 µM | 0.1 to 1 µM |  |  |  |  |  |  |  |  | 0.01 to 0.1 µM | 0.1 to 1 µM | 0.1 to 1 µM | 0.01 to 0.1 µM | IC50 (KRAS G12C; KRAS G12C FRET data, IC50): 0.01 to 0.1 µM; IC50 (NRAS G12C; NRAS G12C FRET data IC50, NRAS G12C): 0.01 to 0.1 µM; IC50 (KRAS WT; KRAS WT FRET data IC50, KRAS WT): 0.1 to 1 µM; IC50 (KRAS G12V; KRAS G12V FRET data IC50, KRAS G12V): 0.01 to 0.1 µM; IC50 (KRAS G12S; KRAS G12S FRET data, IC50): 0.1 to 1 µM; IC50 (KRAS G13C; KRAS G13C FRET data, IC50): 0.01 to 0.1 µM; IC50 (KRAS G12D; KRAS G12D FRET data, IC50): 0.1 to 1 µM; IC50 (KRAS G13D; KRAS G13D FRET data IC50, KRAS G13D): 0.1 to 1 µM
CCn1c(-c2cccnc2[C@H](C)OC)c2c3cc(ccc31)-c1csc(n1)[C@@H](O)[C@H](NC(=O)[C@H](C(C)C)N(C)C(=O)N1CC(N(C)C)C1)C(=O)N1CCC[C@H](N1)C(=O)OCC(C)(C)C2 (atropisomer, axis not shown) [Example A489] | 0.1 to 1 µM | 0.01 to 0.1 µM | 0.01 to 0.1 µM | 0.01 to 0.1 µM | 0.1 to 1 µM | 0.1 to 1 µM | 0.1 to 1 µM | 0.1 to 1 µM | 1 to 10 µM | 0.1 to 1 µM | 0.01 to 0.1 µM | 0.1 to 1 µM | 0.1 to 1 µM | 0.1 to 1 µM | 
